Each compound was assayed against BRG1 (Homo sapiens, UniProt P51532) (assay: biochemical). Conditions: BRG1 HTRF IC50 (µM).
Format: binding
From the text: IC50 measurements for inhibitors using BRG1 TR-FRET Binding Assay

Sequence of BRG1 (P51532 1448-1575): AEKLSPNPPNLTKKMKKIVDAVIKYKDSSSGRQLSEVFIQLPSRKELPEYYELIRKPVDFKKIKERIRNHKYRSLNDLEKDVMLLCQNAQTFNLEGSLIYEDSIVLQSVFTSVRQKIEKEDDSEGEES

| IC50 [µM] | SMILES |
| --- | --- |
| 0.296 | CN1CCCN(c2cc(-c3ccccc3O)nnc2N)CC1 [Example 2, 2-(6-amino-5-(4-methyl-1,4-diazepan-1-yl)pyridazin-3-yl)phenol] |
| 0.0612 | Nc1nnc(-c2ccccc2O)cc1N1CCN(S(=O)(=O)c2ccccc2)CC1 [Example 11, 2-(6-amino-5-(4-(phenylsulfonyl)piperazin-1-yl)pyridazin-3-yl)phenol] |
| 0.0612 | Nc1nnc(-c2ccccc2O)cc1N1CCN(Cc2ccccc2)CC1 [Example 12, 2-(6-amino-5-(4-benzylpiperazin-1-yl)pyridazin-3-yl)phenol] |
| 0.0321 | Nc1nnc(-c2ccccc2O)cc1N1CCN(c2ccccc2)CC1 [Example 13, 2-(6-amino-5-(4-phenylpiperazin-1-yl)pyridazin-3-yl)phenol] |
| 0.0735 | Nc1nnc(-c2ccccc2O)cc1N1CCN(Cc2ccccc2)C(=O)C1 [Example 14, 4-(3-amino-6-(2-hydroxyphenyl)pyridazin-4-yl)-1-benzylpiperazin-2-one] |
| 0.0967 | Nc1nnc(-c2ccccc2O)cc1N1CCC(c2ccccc2)CC1 [Example 18, 2-(6-amino-5-(4-phenylpiperidin-1-yl)pyridazin-3-yl)phenol] |
| 0.0564 | CN(C)C(=O)C1CCN(c2cc(-c3ccccc3O)nnc2N)CC1 [Example 19, 1-(3-amino-6-(2-hydroxyphenyl)pyridazin-4-yl)-N,N-dimethylpiperidine-4-carboxamide] |
| 0.0358 | CC(C)(O)C1CCN(c2cc(-c3ccccc3O)nnc2N)CC1 [Example 20, 2-(6-amino-5-(4-(2-hydroxypropan-2-yl)piperidin-1-yl)pyridazin-3-yl)phenol] |
| 0.116 | CN(C)CC1CCCN(c2cc(-c3ccccc3O)nnc2N)C1 (stereo not shown) [Example 21, 2-(6-amino-5-(3-((dimethylamino)methyl)piperidin-1-yl)pyridazin-3-yl)phenol] |
| 0.0421 | CC1CN(c2cc(-c3ccccc3O)nnc2N)CCN1Cc1ccccc1 (stereo not shown) [Example 22, 2-(6-amino-5-(4-benzyl-3-methylpiperazin-1-yl)pyridazin-3-yl)phenol] |
| 0.172 | Nc1nnc(-c2ccccc2O)cc1N1CCNC(C(F)(F)F)C1 (stereo not shown) [Example 23, 2-(6-amino-5-(3-(trifluoromethyl)piperazin-1-yl)pyridazin-3-yl)phenol] |
| 0.0746 | CNC(=O)CN1CCN(c2cc(-c3ccccc3O)nnc2N)CC1 [Example 24, 2-(4-(3-amino-6-(2-hydroxyphenyl)pyridazin-4-yl)piperazin-1-yl)-N-methylacetamide] |
| 0.0176 | CN1CCOC2(CCN(c3cc(-c4ccccc4O)nnc3N)CC2)C1 [Example 25, 2-(6-amino-5-(4-methyl-1-oxa-4,9-diazaspiro[5.5]undecan-9-yl)pyridazin-3-yl)phenol] |
| 0.0978 | CS(=O)(=O)CCN1CCN(c2cc(-c3ccccc3O)nnc2N)CC1 [Example 26, 2-(6-amino-5-(4-(2-(methylsulfonyl)ethyl)piperazin-1-yl)pyridazin-3-yl)phenol] |
| 0.0755 | Nc1nnc(-c2ccccc2O)cc1N1CCN(CC(F)(F)F)CC1 [Example 27, 2-(6-amino-5-(4-(2,2,2-trifluoroethyl)piperazin-1-yl)pyridazin-3-yl)phenol] |
| 0.0566 | Nc1nnc(-c2ccccc2O)cc1N1CCC2(CC1)CNC(=O)C2 [Example 29, 8-(3-amino-6-(2-hydroxyphenyl)pyridazin-4-yl)-2,8-diazaspiro[4.5]decan-3-one] |
| 0.0208 | CN(C)CC1(O)CCN(c2cc(-c3ccccc3O)nnc2N)CC1 [Example 31, 1-(3-amino-6-(2-hydroxyphenyl)pyridazin-4-yl)-4-((dimethylamino)methyl) piperidin-4-ol] |
| 0.0962 | CN(CCc1ccccc1)c1cc(-c2ccccc2O)nnc1N [Example 36, 2-(6-amino-5-(methyl(phenethyl)amino)pyridazin-3-yl)phenol] |
| 0.102 | CC1CN(c2cc(-c3ccccc3O)nnc2N)CC(C)N1Cc1ccccc1 (stereo not shown) [Example 37, 2-(6-amino-5-(4-benzyl-3,5-dimethylpiperazin-1 - yl)pyridazin-3-yl)phenol] |
| 0.0921 | Nc1nnc(-c2ccccc2O)cc1N1CCC(O)C1 (stereo not shown) [Example 38, 1-(3-amino-6-(2-hydroxyphenyl)pyridazin-4-yl)pyrrolidin-3-ol] |

| IC50 [µM] | SMILES |
| --- | --- |
| 0.113 | Nc1nnc(-c2ccccc2O)cc1N1CCC(O)(Cc2ccccc2)C1 (stereo not shown) [Example 39, 1-(3-amino-6-(2-hydroxyphenyl)pyridazin-4-yl)-3-benzylpyrrolidin-3-ol] |
| 0.0794 | COC1(Cc2ccccc2)CCN(c2cc(-c3ccccc3O)nnc2N)C1 (stereo not shown) [Example 40, 2-(6-amino-5-(3-benzyl-3-methoxypyrrolidin-1-yl)pyridazin-3-yl)phenol] |
| 0.0282 | Nc1nnc(-c2ccccc2O)cc1N1CC2CC1CN2c1ccccn1 (stereo not shown) [Example 41, 2-(6-amino-5-(5-(pyridin-2-yl)-2,5-diazabicyclo[2.2.1]heptan-2-yl)pyridazin-3-yl)phenol] |
| 0.0113 | Nc1nnc(-c2ccccc2O)cc1N1CCC(O)(c2ccccc2)CC1 [Example 42, 1-(3-amino-6-(2-hydroxyphenyl)pyridazin-4-yl)-4-phenylpiperidin-4-ol] |
| 0.0253 | CC1CN(c2cc(-c3ccccc3O)nnc2N)CCC1(O)c1ccccc1 (stereo not shown) [Example 44, 1-(3-amino-6-(2-hydroxyphenyl)pyridazin-4-yl)-3-methyl-4-phenylpiperidin-4-ol] |
| 0.414 | Nc1nnc(-c2ccccc2O)cc1N1CCS(=O)(=O)CC1 [Example 46, 4-(3-amino-6-(2-hydroxyphenyl)pyridazin-4-yl)thiomorpholine 1,1-dioxide] |
| 0.0848 | Nc1nnc(-c2ccccc2O)cc1N1CCNC(Cc2ccccc2)C1 (stereo not shown) [Example 49, 2-(6-amino-5-(3-benzylpiperazin-1-yl)pyridazin-3-yl)phenol] |
| 0.128 | Nc1nnc(-c2ccccc2O)cc1N1CCc2[nH]ncc2C1 [Example 52, 2-(6-amino-5-(1,4,6,7-tetrahydro-5H-pyrazolo[4,3-c]pyridin-5-yl)pyridazin-3-yl)phenol] |
| 0.316 | Nc1nnc(-c2ccccc2O)cc1N1CCNC(=O)C1 [Example 53, 4-(3-amino-6-(2-hydroxyphenyl)pyridazin-4-yl)piperazin-2-one] |
| 0.123 | Nc1nnc(-c2ccccc2O)cc1N1CCC(c2ccccc2)C1 (stereo not shown) [Example 55, 2-(6-amino-5-(3-phenylpyrrolidin-1-yl)pyridazin-3-yl)phenol] |
| 0.0252 | Nc1nnc(-c2ccccc2O)cc1N1CC(OCc2ccccc2)C1 [Example 58, 2-(6-amino-5-(3-(benzyloxy)azetidin-1-yl)pyridazin-3-yl)phenol] |
| 0.0158 | Nc1nnc(-c2ccccc2O)cc1N1CCCC(O)(c2ccccc2)C1 (stereo not shown) [Example 59, 1-(3-amino-6-(2-hydroxyphenyl)pyridazin-4-yl)-3-phenylpiperidin-3-ol] |
| 0.0247 | C[C@@H](C1CCN(c2cc(-c3ccccc3O)nnc2N)CC1)N(C)C [Example 60, (S)-2-(6-amino-5-(4-(1-(dimethylamino)ethyl)piperidin-1-yl)pyridazin-3-yl)phenol] |
| 0.0348 | Nc1nnc(-c2ccccc2O)cc1N1CCN(C(=O)c2ccccc2)CC1 [Example 61, (4-(3-amino-6-(2-hydroxyphenyl)pyridazin-4-yl)piperazin-1-yl)(phenyl)methanone] |
| 0.0117 | CC1CN(c2cc(-c3ccccc3O)nnc2N)CCN1C(=O)c1ccccc1 (stereo not shown) [Example 62, (4-(3-amino-6-(2-hydroxyphenyl)pyridazin-4-yl)-2-methylpiperazin-1-yl)(phenyl)methanone] |
| 0.208 | Nc1nnc(-c2ccccc2O)cc1N1CCN(c2ccccc2)C(=O)C1 [Example 64, 4-(3-amino-6-(2-hydroxyphenyl)pyridazin-4-yl)-1-phenylpiperazin-2-one] |
| 0.0276 | C[C@H](C1CCN(c2cc(-c3ccccc3O)nnc2N)CC1)N(C)C [Example 65, (R)-2-(6-amino-5-(4-(1-(dimethylamino)ethyl)piperidin-1-yl)pyridazin-3-yl)phenol] |
| 0.0367 | Cn1cc(N2CCN(c3cc(-c4ccccc4O)nnc3N)CC2)cn1 [Example 68, 2-(6-amino-5-(4-(1-methyl-1H-pyrazol-4-yl)piperazin-1-yl)pyridazin-3-yl)phenol] |
| 0.0824 | NC(=O)C1CCN(c2cc(-c3ccccc3O)nnc2N)CC1 [Example 73, 1-(3-amino-6-(2-hydroxyphenyl)pyridazin-4-yl)piperidine-4-carboxamide] |
| 0.0106 | Nc1nnc(-c2ccccc2O)cc1N1C[C@H]2C[C@@H]1CN2c1ccccn1 [Example 74, 2-(6-amino-5-((1R,4R)-5-(pyridin-2-yl)-2,5-diazabicyclo[2.2.1]heptan-2-yl)pyridazin-3-yl)phenol] |

| SMILES | IC50 [µM] |
| --- | --- |
| Nc1nnc(-c2ccccc2O)cc1N1C[C@@H]2C[C@H]1CN2Cc1ccccc1 [Example 17, 2-(6-amino-5-((1S,4S)-5-benzyl-2,5-diazabicyclo[2.2.1]heptan-2-yl)pyridazin-3-yl)phenol] | 0.147 |
| Nc1nnc(-c2ccccc2O)cc1N1CC2CCC(C1)N2c1cncnc1 [Example 43, 2-(6-amino-5-(8-(pyrimidin-5-yl)-3,8-diazabicyclo[3.2.1]octan-3-yl)pyridazin-3-yl)phenol] | 0.0193 |
| Cn1cc(N2C3CCC2CN(c2cc(-c4ccccc4O)nnc2N)C3)cn1 [Example 48, 2-(6-amino-5-(8-(1-methyl-1H-pyrazol-4-yl)-3,8-diazabicyclo[3.2.1]octan-3-yl)pyridazin-3-yl)phenol] | 0.0309 |
| Nc1nnc(-c2ccccc2O)cc1N1CC2CCC(C1)N2c1cnccn1 [Example 50, 2-(6-amino-5-(8-(pyrazin-2-yl)-3,8-diazabicyclo[3.2.1]octan-3-yl)pyridazin-3-yl)phenol] | 0.0106 |
| CC(=O)N1C2CCC1CN(c1cc(-c3ccccc3O)nnc1N)C2 [Example 66, 1-(3-(3-amino-6-(2-hydroxyphenyl)pyridazin-4-yl)-3,8-diazabicyclo[3.2.1]octan-8-yl)ethan-1-one] | 0.0713 |
| CS(=O)(=O)N1C2CCC1CN(c1cc(-c3ccccc3O)nnc1N)C2 [Example 67, 2-(6-amino-5-(8-(methylsulfonyl)-3,8-diazabicyclo[3.2.1]octan-3-yl)pyridazin-3-yl)phenol] | 0.0294 |

From patent EP3262036B1, “THERAPEUTIC PYRIDAZINE COMPOUNDS AND USES THEREOF” (priority 2015, dated 2016)
